Reference: US12421232B2, “Kinase inhibitor compounds and compositions and methods of use” (ICAHN SCHOOL OF MEDICINE AT MOUNT SINAI, priority 2018, dated 2025)
Where two headings read alike, the source gives them in different places.

Key:
Test in all cases: KINOMEscan Assay (DiscoverX)
Assay type in all cases: binding
Conditions in all cases: read-out: % DMSO Ctrl
PIM2 = biological target: T1, PIM2 (Homo sapiens, UniProt Q9P1W9)
T1 construct: purchased DiscoverX

PIK4CB = biological target: T2, PIK4CB (Homo sapiens, UniProt Q9UBF8)
T2 construct: purchased DiscoverX

PDGFRB = biological target: T3, PDGFRB (Homo sapiens, UniProt P09619)
T3 construct: purchased DiscoverX

FLT3(K663Q) = biological target: T4, FLT3(K663Q) (Homo sapiens, UniProt P36888, K663Q)
T4 construct: purchased DiscoverX
T4 sequence (P36888 27-993 K663Q): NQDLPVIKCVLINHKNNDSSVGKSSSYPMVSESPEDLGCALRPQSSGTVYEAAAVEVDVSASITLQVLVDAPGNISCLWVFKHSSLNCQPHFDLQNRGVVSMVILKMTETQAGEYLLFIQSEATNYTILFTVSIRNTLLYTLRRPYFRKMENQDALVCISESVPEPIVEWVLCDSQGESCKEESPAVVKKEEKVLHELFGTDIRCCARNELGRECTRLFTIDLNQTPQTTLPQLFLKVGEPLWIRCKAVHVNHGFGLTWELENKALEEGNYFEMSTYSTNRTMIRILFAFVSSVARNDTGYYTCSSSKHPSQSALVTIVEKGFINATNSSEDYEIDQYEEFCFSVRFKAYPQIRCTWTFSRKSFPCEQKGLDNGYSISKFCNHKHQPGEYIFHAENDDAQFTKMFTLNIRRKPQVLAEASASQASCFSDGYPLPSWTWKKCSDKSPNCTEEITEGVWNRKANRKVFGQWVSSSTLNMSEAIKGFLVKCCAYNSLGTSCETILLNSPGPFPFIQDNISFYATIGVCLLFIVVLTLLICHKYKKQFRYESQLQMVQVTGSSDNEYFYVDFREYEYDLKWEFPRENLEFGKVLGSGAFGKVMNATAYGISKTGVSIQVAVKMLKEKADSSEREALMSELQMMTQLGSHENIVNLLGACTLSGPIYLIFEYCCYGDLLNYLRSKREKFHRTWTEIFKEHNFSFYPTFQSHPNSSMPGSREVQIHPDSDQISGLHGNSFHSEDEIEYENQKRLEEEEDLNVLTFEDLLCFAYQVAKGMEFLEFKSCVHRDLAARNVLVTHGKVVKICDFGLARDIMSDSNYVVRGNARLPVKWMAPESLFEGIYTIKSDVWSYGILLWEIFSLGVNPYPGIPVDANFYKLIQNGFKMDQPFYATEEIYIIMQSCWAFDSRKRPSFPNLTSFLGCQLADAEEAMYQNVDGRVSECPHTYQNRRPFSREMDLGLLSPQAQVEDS

EGFR(L858R,T790M) = biological target: T5, EGFR(L858R,T790M) (Homo sapiens, UniProt P00533, L858R/T790M)
T5 construct: purchased DiscoverX

CLK3 = biological target: T6, CLK3 (Homo sapiens, UniProt P49761)
T6 construct: purchased DiscoverX

MEK2 = biological target: T7, MEK2 (Homo sapiens, UniProt P36507)
T7 construct: purchased DiscoverX

PIK3C2G = biological target: T8, PIK3C2G (Homo sapiens, UniProt O75747)
T8 construct: purchased DiscoverX
T8 sequence (O75747 1-1486): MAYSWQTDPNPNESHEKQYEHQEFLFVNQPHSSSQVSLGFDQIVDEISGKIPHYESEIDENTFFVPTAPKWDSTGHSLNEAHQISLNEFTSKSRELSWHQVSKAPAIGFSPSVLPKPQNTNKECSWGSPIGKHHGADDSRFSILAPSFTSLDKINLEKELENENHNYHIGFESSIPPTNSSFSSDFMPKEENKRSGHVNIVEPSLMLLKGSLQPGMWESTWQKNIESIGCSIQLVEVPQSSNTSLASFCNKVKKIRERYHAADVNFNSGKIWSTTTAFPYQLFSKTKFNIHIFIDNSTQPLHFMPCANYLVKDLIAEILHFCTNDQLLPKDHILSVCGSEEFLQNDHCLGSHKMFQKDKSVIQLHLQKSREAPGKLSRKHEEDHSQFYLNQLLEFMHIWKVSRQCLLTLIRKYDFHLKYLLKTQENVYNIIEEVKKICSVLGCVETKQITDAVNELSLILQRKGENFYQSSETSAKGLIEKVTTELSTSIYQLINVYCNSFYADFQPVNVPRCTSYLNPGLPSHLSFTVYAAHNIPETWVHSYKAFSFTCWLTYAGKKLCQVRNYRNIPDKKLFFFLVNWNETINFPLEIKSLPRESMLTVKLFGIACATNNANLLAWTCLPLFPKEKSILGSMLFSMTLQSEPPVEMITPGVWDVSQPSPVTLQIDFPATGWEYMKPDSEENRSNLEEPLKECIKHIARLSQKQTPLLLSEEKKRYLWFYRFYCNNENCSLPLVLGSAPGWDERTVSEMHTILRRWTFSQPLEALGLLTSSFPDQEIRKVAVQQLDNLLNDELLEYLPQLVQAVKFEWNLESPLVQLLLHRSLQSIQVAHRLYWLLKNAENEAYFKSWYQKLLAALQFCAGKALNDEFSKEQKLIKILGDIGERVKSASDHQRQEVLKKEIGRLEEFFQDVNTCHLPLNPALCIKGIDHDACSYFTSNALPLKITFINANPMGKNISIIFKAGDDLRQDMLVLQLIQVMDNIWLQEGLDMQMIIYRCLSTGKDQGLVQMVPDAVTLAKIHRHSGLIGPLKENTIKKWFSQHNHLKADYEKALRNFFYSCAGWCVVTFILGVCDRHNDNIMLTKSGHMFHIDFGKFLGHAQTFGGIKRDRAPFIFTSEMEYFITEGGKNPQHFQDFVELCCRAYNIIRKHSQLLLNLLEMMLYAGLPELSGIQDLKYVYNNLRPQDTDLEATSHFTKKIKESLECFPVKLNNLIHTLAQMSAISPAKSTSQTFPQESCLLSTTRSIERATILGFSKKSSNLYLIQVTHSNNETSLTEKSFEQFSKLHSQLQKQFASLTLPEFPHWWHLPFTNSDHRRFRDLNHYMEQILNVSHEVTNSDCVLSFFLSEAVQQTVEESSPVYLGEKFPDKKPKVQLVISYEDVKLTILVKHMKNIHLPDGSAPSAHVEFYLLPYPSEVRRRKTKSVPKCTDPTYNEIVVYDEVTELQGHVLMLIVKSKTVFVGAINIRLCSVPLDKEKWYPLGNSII

T6 sequence (P49761 whole entry): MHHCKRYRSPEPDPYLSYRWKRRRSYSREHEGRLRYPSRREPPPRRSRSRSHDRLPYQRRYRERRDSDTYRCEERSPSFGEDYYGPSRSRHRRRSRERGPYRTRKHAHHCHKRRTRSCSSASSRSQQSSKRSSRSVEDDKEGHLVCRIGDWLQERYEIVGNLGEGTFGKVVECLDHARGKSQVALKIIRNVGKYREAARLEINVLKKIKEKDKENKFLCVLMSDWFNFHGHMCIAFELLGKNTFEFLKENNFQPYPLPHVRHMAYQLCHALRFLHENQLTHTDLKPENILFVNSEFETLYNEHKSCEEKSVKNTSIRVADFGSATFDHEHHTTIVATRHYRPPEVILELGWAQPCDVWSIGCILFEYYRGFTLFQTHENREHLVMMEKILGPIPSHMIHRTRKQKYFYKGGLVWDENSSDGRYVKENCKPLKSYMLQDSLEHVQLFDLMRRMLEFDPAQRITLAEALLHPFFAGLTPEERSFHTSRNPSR
T3 sequence (P09619 33-1106): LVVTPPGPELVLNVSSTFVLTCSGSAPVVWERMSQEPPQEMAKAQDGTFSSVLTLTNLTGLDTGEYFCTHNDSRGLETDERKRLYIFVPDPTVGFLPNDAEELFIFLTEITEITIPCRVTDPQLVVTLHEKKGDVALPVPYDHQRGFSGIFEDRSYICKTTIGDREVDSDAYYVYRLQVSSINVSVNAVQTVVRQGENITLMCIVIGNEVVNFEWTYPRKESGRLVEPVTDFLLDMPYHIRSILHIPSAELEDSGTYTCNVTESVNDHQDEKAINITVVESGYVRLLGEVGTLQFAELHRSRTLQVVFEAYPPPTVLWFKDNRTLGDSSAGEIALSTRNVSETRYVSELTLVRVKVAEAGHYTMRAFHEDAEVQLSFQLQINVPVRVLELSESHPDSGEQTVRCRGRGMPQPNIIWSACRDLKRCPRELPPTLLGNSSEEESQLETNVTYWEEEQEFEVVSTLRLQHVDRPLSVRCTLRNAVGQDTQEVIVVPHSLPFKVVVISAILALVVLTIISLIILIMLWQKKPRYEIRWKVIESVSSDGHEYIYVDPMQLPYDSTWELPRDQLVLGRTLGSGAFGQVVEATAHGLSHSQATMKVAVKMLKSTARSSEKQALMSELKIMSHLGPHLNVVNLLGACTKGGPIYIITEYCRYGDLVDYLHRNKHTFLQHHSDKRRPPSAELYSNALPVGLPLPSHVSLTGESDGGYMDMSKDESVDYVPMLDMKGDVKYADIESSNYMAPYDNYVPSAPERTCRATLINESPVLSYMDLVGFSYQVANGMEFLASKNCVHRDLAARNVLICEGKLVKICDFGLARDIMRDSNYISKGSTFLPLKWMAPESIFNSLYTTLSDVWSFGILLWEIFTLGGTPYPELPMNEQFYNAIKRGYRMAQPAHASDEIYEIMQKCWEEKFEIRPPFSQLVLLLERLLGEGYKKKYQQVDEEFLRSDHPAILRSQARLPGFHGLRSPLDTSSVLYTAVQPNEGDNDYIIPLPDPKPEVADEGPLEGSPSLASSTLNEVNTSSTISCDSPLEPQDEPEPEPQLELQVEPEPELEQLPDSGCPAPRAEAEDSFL
T5 sequence (P00533 25-1210 T790M/L858R): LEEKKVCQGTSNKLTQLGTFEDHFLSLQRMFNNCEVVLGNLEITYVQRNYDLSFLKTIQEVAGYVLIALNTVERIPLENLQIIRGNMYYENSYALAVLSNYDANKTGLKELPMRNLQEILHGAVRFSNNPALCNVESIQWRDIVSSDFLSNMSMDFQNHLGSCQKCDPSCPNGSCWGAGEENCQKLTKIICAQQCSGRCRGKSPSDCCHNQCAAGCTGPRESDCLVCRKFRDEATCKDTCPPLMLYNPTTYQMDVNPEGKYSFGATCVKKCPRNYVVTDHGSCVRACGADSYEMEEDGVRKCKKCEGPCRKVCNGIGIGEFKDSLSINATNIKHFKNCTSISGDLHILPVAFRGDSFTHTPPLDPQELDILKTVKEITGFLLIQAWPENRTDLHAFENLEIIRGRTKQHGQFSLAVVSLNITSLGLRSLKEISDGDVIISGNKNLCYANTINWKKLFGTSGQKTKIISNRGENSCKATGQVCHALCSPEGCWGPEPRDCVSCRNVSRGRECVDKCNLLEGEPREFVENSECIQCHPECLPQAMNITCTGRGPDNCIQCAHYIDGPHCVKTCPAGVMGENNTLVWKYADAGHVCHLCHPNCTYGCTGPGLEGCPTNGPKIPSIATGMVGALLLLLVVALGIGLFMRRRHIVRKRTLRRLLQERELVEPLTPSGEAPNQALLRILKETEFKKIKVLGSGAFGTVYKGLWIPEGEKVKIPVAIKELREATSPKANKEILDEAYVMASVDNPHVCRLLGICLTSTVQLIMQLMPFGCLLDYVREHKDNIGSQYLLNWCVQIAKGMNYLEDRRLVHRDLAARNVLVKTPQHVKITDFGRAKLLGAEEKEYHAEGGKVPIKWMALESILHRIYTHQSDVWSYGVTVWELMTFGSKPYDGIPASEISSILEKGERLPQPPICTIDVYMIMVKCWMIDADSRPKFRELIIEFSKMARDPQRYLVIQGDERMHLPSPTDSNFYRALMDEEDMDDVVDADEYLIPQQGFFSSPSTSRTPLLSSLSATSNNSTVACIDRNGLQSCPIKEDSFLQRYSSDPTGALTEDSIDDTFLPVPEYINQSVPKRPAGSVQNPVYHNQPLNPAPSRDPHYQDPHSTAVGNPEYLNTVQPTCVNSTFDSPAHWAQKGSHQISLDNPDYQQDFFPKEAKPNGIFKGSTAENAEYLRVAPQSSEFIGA
T7 sequence (P36507 whole entry): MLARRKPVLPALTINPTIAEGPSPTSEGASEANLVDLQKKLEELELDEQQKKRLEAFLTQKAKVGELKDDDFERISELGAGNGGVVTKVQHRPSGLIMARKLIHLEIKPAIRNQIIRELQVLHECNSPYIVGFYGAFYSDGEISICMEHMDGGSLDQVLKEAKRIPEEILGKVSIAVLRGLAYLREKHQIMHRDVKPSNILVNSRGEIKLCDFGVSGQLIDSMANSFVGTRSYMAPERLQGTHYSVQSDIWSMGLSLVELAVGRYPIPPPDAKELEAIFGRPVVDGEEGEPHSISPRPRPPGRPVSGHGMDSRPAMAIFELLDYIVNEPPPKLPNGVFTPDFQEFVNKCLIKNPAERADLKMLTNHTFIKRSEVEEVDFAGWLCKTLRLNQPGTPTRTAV
T1 sequence (Q9P1W9 whole entry): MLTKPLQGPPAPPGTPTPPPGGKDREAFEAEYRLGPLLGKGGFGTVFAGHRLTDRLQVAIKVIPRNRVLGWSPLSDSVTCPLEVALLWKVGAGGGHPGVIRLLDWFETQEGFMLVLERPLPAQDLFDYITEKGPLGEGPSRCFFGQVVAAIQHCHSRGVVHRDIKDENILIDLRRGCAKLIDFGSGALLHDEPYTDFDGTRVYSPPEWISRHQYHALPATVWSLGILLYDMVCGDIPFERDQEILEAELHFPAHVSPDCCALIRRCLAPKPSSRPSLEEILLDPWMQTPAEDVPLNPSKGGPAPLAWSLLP
T2 sequence (Q9UBF8 whole entry): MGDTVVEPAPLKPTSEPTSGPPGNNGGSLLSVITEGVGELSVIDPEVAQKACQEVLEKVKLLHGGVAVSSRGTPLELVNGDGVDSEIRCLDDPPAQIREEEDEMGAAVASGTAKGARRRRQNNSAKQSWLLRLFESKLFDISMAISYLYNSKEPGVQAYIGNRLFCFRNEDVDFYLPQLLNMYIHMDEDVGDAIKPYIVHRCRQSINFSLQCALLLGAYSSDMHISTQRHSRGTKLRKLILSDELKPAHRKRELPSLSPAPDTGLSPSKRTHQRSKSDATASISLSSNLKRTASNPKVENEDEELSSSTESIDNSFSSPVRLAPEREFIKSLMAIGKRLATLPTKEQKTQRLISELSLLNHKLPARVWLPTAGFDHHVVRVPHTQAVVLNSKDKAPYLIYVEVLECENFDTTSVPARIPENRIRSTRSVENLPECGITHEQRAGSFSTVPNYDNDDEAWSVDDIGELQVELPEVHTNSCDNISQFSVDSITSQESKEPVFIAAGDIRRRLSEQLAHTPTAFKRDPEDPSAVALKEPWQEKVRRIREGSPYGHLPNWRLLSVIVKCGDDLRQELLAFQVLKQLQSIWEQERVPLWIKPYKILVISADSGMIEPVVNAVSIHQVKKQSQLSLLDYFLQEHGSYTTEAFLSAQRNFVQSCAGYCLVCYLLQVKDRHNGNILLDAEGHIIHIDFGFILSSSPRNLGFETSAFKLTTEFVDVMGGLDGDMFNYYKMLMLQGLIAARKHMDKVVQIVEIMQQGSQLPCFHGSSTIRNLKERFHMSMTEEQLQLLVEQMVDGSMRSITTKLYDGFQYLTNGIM

Compound | remaining binding at 10 µM (PIM2) | remaining binding at 10 µM (PIK4CB) | remaining binding at 10 µM (PIM2; PIM2, 10 μM) | remaining binding at 10 µM (PDGFRB) | remaining binding at 10 µM (FLT3(K663Q)) | remaining binding at 10 µM (EGFR(L858R,T790M)) | remaining binding at 10 µM (PIK4CB; PIK4CB, 10 μM) | remaining binding at 10 µM (CLK3) | remaining binding at 10 µM (MEK2) | remaining binding at 10 µM (PIK3C2G) | remaining binding at 10 µM (PDGFRB; PDGFRB, 10 μM) | remaining binding at 10 µM (FLT3(K663Q); FLT3(K663Q) mutant, 10 μM) | remaining binding at 10 µM (EGFR(L858R,T790M); EGFR(L858R,T790M) mutant, 10 μM) | remaining binding at 10 µM (CLK3; CLK3, 10 μM) | remaining binding at 10 µM (MEK2; MEK2, 10 μM) | remaining binding at 10 µM (PIK3C2G; PIK3C2G, 10 μM)
COc1ccc2c(c1)[nH]c1c(C)nccc12 [Harmine, reference compound] | 39% | 12% | – | – | – | – | – | – | – | – | – | – | – | – | – | –
C#CCn1c2cc(OC)ccc2c2ccnc(C)c21 [Compound 20-23a, 3-(7-Methoxy-1-methyl-β-carbolin-9-yl)-propan-1-yne] | – | – | 19% | 77% | 93% | 100% | 0% | 19% | 96% | 38% | – | – | – | – | – | –
COc1ccc2c3ccnc(C)c3n(CCCc3noc(N)n3)c2c1 [Compound 20-13, 3-(3-(7-Methoxy-1-methyl-β-carbolin-9-yl)propyl)-5-amino-1,2,4-oxadiazole] | 38% | 9.9% | – | 100% | 98% | 9.2% | – | 54% | 0% | 1.2% | – | – | – | – | – | –
COc1ccc2c(c1)[nH]c1c(C)nc(CO)cc12 [Compound 2-8, (1-Methyl-7-methoxy-9H-pyrido[3,4-b]indol-3-yl)methanol] | – | – | – | – | – | – | – | – | – | – | 97% | 100% | 79% | 36% | 100% | 36%
